The supplement of paper PMC10627819

Columns and labels:
B. subtilis 168 [1] = assay: fitness (endpoint OD595 vs no drug) (fraction); higher = more growth
How it was run: (§1)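 Each well of a 384-well plate received 30 µl of culture at OD595 0.01, or 55 µl for S. pneumoniae. TSB, LB Lennox or CY served as media at 37 °C. OD595 was taken every 30 min for 14 h and corrected by subtracting the first reading. Fitness is the optical density at stationary-phase entry divided by the robust mean of no-drug controls, capped at 1.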

S. aureus DSM 20231 [2] = assay: as above
How it was run: as §1

S. aureus Newman [3] = assay: as above
How it was run: as §1

S. pneumoniae D39V [4] = assay: as above
How it was run: as §1

B. subtilis 168 [5] = assay: Bliss interaction score (quartile over a dose matrix) (fitness difference); higher = more antagonism (negative = synergy)
How it was run: (§2)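 Each plate was normalised to the robust mean of its own no-drug wells, using OD595 at entry into stationary phase, with values capped at 1. This normalised growth is the fitness value. The Bliss score is the difference between observed and product-expected fitness, with single-drug fitness inferred from the combination data and quartiles taken over technical, biological and donor/recipient replicates.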

S. aureus DSM 20231 [6] = assay: as above
How it was run: as §2

S. aureus Newman [7] = assay: as above
How it was run: as §2

S. pneumoniae D39V [8] = assay: as above
How it was run: as §2
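For Bliss interaction score (quartile over a dose matrix) in this document: first quartile when negative (synergy) and third quartile when positive (antagonism).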

COc1c(N2C[C@@H]3CCCN[C@@H]3C2)c(F)cc2c(=O)c(C(=O)O)cn(C3CC3)c12 [Moxifloxacin] + CN[C@@H]1[C@H](O)[C@H](NC)[C@H]2O[C@@]3(O)C(=O)C[C@@H](C)O[C@H]3O[C@@H]2[C@H]1O [Spectinomycin]
fitness
Conditions	partner 2 µg/mL	partner 4 µg/mL	partner 8 µg/mL	partner 16 µg/mL
B. subtilis 168 [1], first compound 0.0312 µg/mL	0.0488	0.0437	0.0518	–
B. subtilis 168 [1], first compound 0.0625 µg/mL	0.0414	0.0348	0.0153	–
B. subtilis 168 [1], first compound 0.125 µg/mL	0.026	0.0367	0.0296	–
B. subtilis 168 [1], first compound 2 µg/mL	0.0229	0.0184	0.0086	–
B. subtilis 168 [1], first compound 4 µg/mL	0.0296	0.0084	0.0039	–
B. subtilis 168 [1], first compound 8 µg/mL	0.0255	0.02	0.0092	–
S. aureus DSM 20231 [2], first compound 0.0075 µg/mL	–	0.822	0.848	0.731
S. aureus DSM 20231 [2], first compound 0.015 µg/mL	–	0.725	0.734	0.743
S. aureus DSM 20231 [2], first compound 0.03 µg/mL	–	0.654	0.74	0.694
S. aureus Newman [3], first compound 0.0075 µg/mL	–	0.742	0.748	0.7
S. aureus Newman [3], first compound 0.015 µg/mL	–	–	–	0.497
S. aureus Newman [3], first compound 0.03 µg/mL	–	–	0.0882	0.0514
S. pneumoniae D39V [4], first compound 0.005 µg/mL	–	0.923	0.936	0.82
S. pneumoniae D39V [4], first compound 0.01 µg/mL	–	0.944	0.93	0.836
S. pneumoniae D39V [4], first compound 0.02 µg/mL	–	0.896	0.843	0.796

one replicate
Conditions	fitness
S. aureus DSM 20231 [2], first compound 0.0075 µg/mL, partner 32 µg/mL	0.666
S. aureus DSM 20231 [2], first compound 0.0075 µg/mL, partner 64 µg/mL	0.0692
S. aureus DSM 20231 [2], first compound 0.015 µg/mL, partner 32 µg/mL	0.656
S. aureus DSM 20231 [2], first compound 0.015 µg/mL, partner 64 µg/mL	0.0534
S. aureus DSM 20231 [2], first compound 0.03 µg/mL, partner 32 µg/mL	0.625
S. aureus DSM 20231 [2], first compound 0.03 µg/mL, partner 64 µg/mL	0.0231
S. aureus DSM 20231 [2], first compound 0.06 µg/mL, partner 4 µg/mL	0.664
S. aureus DSM 20231 [2], first compound 0.06 µg/mL, partner 8 µg/mL	0.675
S. aureus DSM 20231 [2], first compound 0.06 µg/mL, partner 16 µg/mL	0.673
S. aureus DSM 20231 [2], first compound 0.12 µg/mL, partner 4 µg/mL	0.505
S. aureus DSM 20231 [2], first compound 0.12 µg/mL, partner 8 µg/mL	0.457
S. aureus DSM 20231 [2], first compound 0.12 µg/mL, partner 16 µg/mL	0.523
S. aureus Newman [3], first compound 0.0075 µg/mL, partner 32 µg/mL	0.464
S. aureus Newman [3], first compound 0.0075 µg/mL, partner 64 µg/mL	0.0581
S. aureus Newman [3], first compound 0.015 µg/mL, partner 32 µg/mL	0.294
S. aureus Newman [3], first compound 0.015 µg/mL, partner 64 µg/mL	0.047
S. aureus Newman [3], first compound 0.03 µg/mL, partner 32 µg/mL	0.0318
S. aureus Newman [3], first compound 0.03 µg/mL, partner 64 µg/mL	0.0289
S. pneumoniae D39V [4], first compound 0.0037 µg/mL, partner 4 µg/mL	0.897
S. pneumoniae D39V [4], first compound 0.0037 µg/mL, partner 8 µg/mL	0.83
S. pneumoniae D39V [4], first compound 0.0075 µg/mL, partner 4 µg/mL	0.912
S. pneumoniae D39V [4], first compound 0.0075 µg/mL, partner 8 µg/mL	0.816
S. pneumoniae D39V [4], first compound 0.015 µg/mL, partner 4 µg/mL	0.891
S. pneumoniae D39V [4], first compound 0.015 µg/mL, partner 8 µg/mL	0.813

Conditions	Bliss interaction score
B. subtilis 168 [5]	-0.0287
S. aureus DSM 20231 [6]	-0.0426
S. aureus Newman [7]	-0.0569
S. pneumoniae D39V [8]	0.0328

COc1c(N2C[C@@H]3CCCN[C@@H]3C2)c(F)cc2c(=O)c(C(=O)O)cn(C3CC3)c12 [Moxifloxacin] + COc1ccc(C[C@H](N)C(=O)N[C@H]2[C@@H](O)[C@H](n3cnc4c(N(C)C)ncnc43)O[C@@H]2CO)cc1 [Puromycin]
fitness
Conditions	partner 0.39 µg/mL	partner 0.78 µg/mL	partner 1 µg/mL	partner 1.56 µg/mL	partner 2 µg/mL	partner 4 µg/mL
B. subtilis 168 [1], first compound 0.0312 µg/mL	0.0423	0.0567	–	0.053	–	–
B. subtilis 168 [1], first compound 0.0625 µg/mL	0.0666	0.0602	–	0.0585	–	–
B. subtilis 168 [1], first compound 0.125 µg/mL	0.0451	0.045	–	0.0653	–	–
B. subtilis 168 [1], first compound 2 µg/mL	0.0227	0.028	–	0.0306	–	–
B. subtilis 168 [1], first compound 4 µg/mL	0.021	0.0248	–	0.0303	–	–
B. subtilis 168 [1], first compound 8 µg/mL	0.009	0.0168	–	0.0189	–	–
S. aureus DSM 20231 [2], first compound 0.0075 µg/mL	0.885	0.928	–	0.861	–	–
S. aureus DSM 20231 [2], first compound 0.015 µg/mL	0.789	0.846	–	0.802	–	–
S. aureus DSM 20231 [2], first compound 0.03 µg/mL	0.681	0.695	–	0.668	–	–
S. aureus Newman [3], first compound 0.0075 µg/mL	0.797	0.757	–	0.817	–	–
S. aureus Newman [3], first compound 0.015 µg/mL	0.673	0.657	–	0.658	–	–
S. aureus Newman [3], first compound 0.03 µg/mL	0.119	0.161	–	0.282	–	–
S. pneumoniae D39V [4], first compound 0.005 µg/mL	–	–	≥ 1	–	≥ 1	0.885
S. pneumoniae D39V [4], first compound 0.01 µg/mL	–	–	≥ 1	–	0.982	0.88
S. pneumoniae D39V [4], first compound 0.02 µg/mL	–	–	1	–	0.985	0.88

one replicate
Conditions	fitness
S. aureus DSM 20231 [2], first compound 0.0075 µg/mL, partner 3.12 µg/mL	0.779
S. aureus DSM 20231 [2], first compound 0.0075 µg/mL, partner 6.24 µg/mL	0.642
S. aureus DSM 20231 [2], first compound 0.015 µg/mL, partner 3.12 µg/mL	0.787
S. aureus DSM 20231 [2], first compound 0.015 µg/mL, partner 6.24 µg/mL	0.509
S. aureus DSM 20231 [2], first compound 0.03 µg/mL, partner 3.12 µg/mL	0.754
S. aureus DSM 20231 [2], first compound 0.03 µg/mL, partner 6.24 µg/mL	0.547
S. aureus DSM 20231 [2], first compound 0.06 µg/mL, partner 0.39 µg/mL	0.676
S. aureus DSM 20231 [2], first compound 0.06 µg/mL, partner 0.78 µg/mL	0.7
S. aureus DSM 20231 [2], first compound 0.06 µg/mL, partner 1.56 µg/mL	0.687
S. aureus DSM 20231 [2], first compound 0.12 µg/mL, partner 0.39 µg/mL	0.48
S. aureus DSM 20231 [2], first compound 0.12 µg/mL, partner 0.78 µg/mL	0.482
S. aureus DSM 20231 [2], first compound 0.12 µg/mL, partner 1.56 µg/mL	0.558
S. pneumoniae D39V [4], first compound 0.0037 µg/mL, partner 1 µg/mL	0.502
S. pneumoniae D39V [4], first compound 0.0037 µg/mL, partner 2 µg/mL	0.431
S. pneumoniae D39V [4], first compound 0.0037 µg/mL, partner 4 µg/mL	0.342
S. pneumoniae D39V [4], first compound 0.0075 µg/mL, partner 1 µg/mL	0.846
S. pneumoniae D39V [4], first compound 0.0075 µg/mL, partner 2 µg/mL	0.82
S. pneumoniae D39V [4], first compound 0.0075 µg/mL, partner 4 µg/mL	0.77
S. pneumoniae D39V [4], first compound 0.015 µg/mL, partner 1 µg/mL	0.935
S. pneumoniae D39V [4], first compound 0.015 µg/mL, partner 2 µg/mL	0.798
S. pneumoniae D39V [4], first compound 0.015 µg/mL, partner 4 µg/mL	0.763

Conditions	Bliss interaction score
B. subtilis 168 [5]	-0.0157
S. aureus DSM 20231 [6]	-0.0292
S. aureus Newman [7]	0.0443
S. pneumoniae D39V [8]	0.101

COc1c(N2C[C@@H]3CCCN[C@@H]3C2)c(F)cc2c(=O)c(C(=O)O)cn(C3CC3)c12 [Moxifloxacin] + C[n+]1ccc(-c2cc[n+](C)cc2)cc1 [Paraquat]
fitness
Conditions	partner 1.25 µg/mL	partner 1.5 µg/mL	partner 2.5 µg/mL	partner 3 µg/mL	partner 5 µg/mL	partner 6 µg/mL
B. subtilis 168 [1], first compound 0.0312 µg/mL	0.0599	–	0.0539	–	0.0449	–
B. subtilis 168 [1], first compound 0.0625 µg/mL	0.044	–	0.0467	–	0.0504	–
B. subtilis 168 [1], first compound 0.125 µg/mL	0.0395	–	0.0537	–	0.0512	–
B. subtilis 168 [1], first compound 2 µg/mL	0.0316	–	0.0333	–	0.0436	–
B. subtilis 168 [1], first compound 4 µg/mL	0.0442	–	0.039	–	0.0413	–
B. subtilis 168 [1], first compound 8 µg/mL	0.0139	–	0.0174	–	0.0265	–
S. aureus DSM 20231 [2], first compound 0.0075 µg/mL	0.818	–	0.831	–	0.824	–
S. aureus DSM 20231 [2], first compound 0.015 µg/mL	0.748	–	0.712	–	0.774	–
S. aureus DSM 20231 [2], first compound 0.03 µg/mL	0.647	–	0.632	–	0.634	–
S. aureus Newman [3], first compound 0.0075 µg/mL	0.706	–	0.73	–	0.727	–
S. aureus Newman [3], first compound 0.015 µg/mL	0.583	–	0.565	–	0.554	–
S. aureus Newman [3], first compound 0.03 µg/mL	0.0423	–	0.0559	–	0.0929	–
S. pneumoniae D39V [4], first compound 0.005 µg/mL	–	0.979	–	0.994	–	0.969
S. pneumoniae D39V [4], first compound 0.01 µg/mL	–	0.966	–	0.957	–	0.939
S. pneumoniae D39V [4], first compound 0.02 µg/mL	–	0.947	–	0.927	–	0.893

fitness, one replicate
Conditions	partner 1.25 µg/mL	partner 1.5 µg/mL	partner 2.5 µg/mL	partner 3 µg/mL	partner 5 µg/mL	partner 6 µg/mL
S. aureus DSM 20231 [2], first compound 0.06 µg/mL	0.684	–	0.7	–	0.699	–
S. aureus DSM 20231 [2], first compound 0.12 µg/mL	0.456	–	0.456	–	0.451	–
S. pneumoniae D39V [4], first compound 0.0037 µg/mL	–	0.906	–	0.857	–	0.896
S. pneumoniae D39V [4], first compound 0.0075 µg/mL	–	0.878	–	0.852	–	0.868
S. pneumoniae D39V [4], first compound 0.015 µg/mL	–	0.886	–	0.866	–	0.868

Conditions	Bliss interaction score
B. subtilis 168 [5]	0.0133
S. aureus DSM 20231 [6]	-0.0639
S. aureus Newman [7]	-0.0625
S. pneumoniae D39V [8]	-0.0615
